Experimental findings from paper PMC3397457, “Preclinical Evaluation of Anticancer Efficacy and Pharmacological Properties of FBA-TPQ, a Novel Synthetic Makaluvamine Analog” (Marine Drugs, 2012) are described below.

For series [1], the system named is HPAC cells. The series is described as follows: MTT cell survival assay, HPAC. The following applies: Homo sapiens, 72 h, read-out: Cytotoxicity IC50. It is filed as cell-based. As for the experimental part:
(§1) We evaluated the effects of FBA-TPQ on the survival of several human pancreatic cancer cell lines, including HPAC (p53^+/+), Panc-1(p53^+/−), and Mia PaCa-2(p53^+/−), as well as normal IRM90 fetal fibroblast cells (Figure 2a). Cells were exposed to various concentrations of the test compound (0–10 µM) for 72 h, and cell survival rates were determined by the MTT assay, using a procedure reported previously. FBA-TPQ exerted potent effects against the test cancer cell lines, leading to significant decreases in cell viability.
(§2) Human pancreatic cancer cells were obtained from the American Type Culture Collection (Rockville, MD). All cell culture media contained 10% FBS and 1% penicillin/streptomycin. […]
(§3) The effect of the test compound on human pancreatic cancer cell viability, expressed as the percentage of cell survival, was determined using the MTT (3-(4,5-dimethylthiazol-2-yl)-2,5-diphenyl tetrazolium bromide) assay. […] The absorbance at 570 nm was recorded using an OPTImax microplate reader (Molecular Devices; Sunnyvale, CA, USA). The cell survival percentages were calculated by dividing the mean OD of compound-containing wells by that of DMSO-containing control wells. […]

Series [2] relates to Mia PaCa-2 cells. The series is described as follows: MTT cell survival assay, Mia PaCa-2. It is filed as cell-based. The following applies: Homo sapiens, Mia PaCa-2, 72 h, read-out: Cytotoxicity IC50. On the procedure:
as §1, §2, §3

Series [3] can be described thus: MTT cell survival assay, IMR-90 normal fibroblasts. It is filed as cell-based. Conditions: human, IMR-90 normal fetal fibroblast cells, read-out: Cytotoxicity IC50. On the procedure:
as §1, §2, §3

Series [4] relates to human pancreatic cancer cell lines (HPAC, Panc-1, Mia PaCa-2). The series is described as follows: MTT cell survival assay, pancreatic cancer cell lines taken together. Conditions: 72 h. Type of series: cell-based. As for the experimental part:
as §1
The effect of the test compound on human pancreatic cancer cell viability, expressed as the percentage of cell survival, was determined using the MTT (3-(4,5-dimethylthiazol-2-yl)-2,5-diphenyl tetrazolium bromide) assay. The MTT assay is colorimetric assay for measuring the activity of enzymes that reduce MTT to formazan dyes, giving a purple color. Cells were grown in 96-well plates at 4–5 × 10^3 cells per well and exposed to different concentrations of the test compound (0, 0.1, 0.25, 0.5, 0.75, 1, 5 and 10 µM). […] The absorbance at 570 nm was recorded using an OPTImax microplate reader (Molecular Devices; Sunnyvale, CA, USA). The cell survival percentages were calculated by dividing the mean OD of compound-containing wells by that of DMSO-containing control wells. […]

The test system of series [5] is Panc-1 cells. The series is described as follows: Annexin V apoptosis assay/flow cytometry, Panc-1. Type of series: cell-based, human. The following applies: Panc-1, 1 µM, 48 h. As for the experimental part:
The apoptotic cells were detected using a method reported previously. […] In HPAC cells, a 1 µM concentration of FBA-TPQ increased the apoptotic index two-fold higher than that seen in control cells (P < 0.01). […] In the Mia PaCa-2 cells, FBA-TPQ at 1 µM led to a three-fold increase in apoptosis (P < 0.01).
Following a similar protocol as above, cells in early and late stages of apoptosis were detected using an Annexin V-FITC apoptosis detection kit from BioVision (Mountain View, CA, USA), according to the manufacturer’s protocol. For apoptosis experiments, 2–3 × 10^5 cells were exposed to the test compound (0, 0.1, 0.5 and 1.0 µM) and incubated for 48 h prior to analysis. Cells were collected and washed with serum-free media. Cells were then re-suspended in 500 µL of Annexin V binding buffer followed by addition of 5 µL of Annexin V-FITC and 5 µL of propidium iodide (PI). The samples were incubated in the dark for 5 min at room temperature and analyzed with a Becton Dickinson FACSCalibur instrument (Ex = 488 nm; Em = 530 nm). Cells that were positive for Annexin V-FITC alone (early apoptosis) and Annexin V-FITC and PI (late apoptosis) were counted. The apoptotic index was calculated against the untreated control cells.

Series [6] deals with Panc-1 cells. The series can be described thus: Cell cycle distribution by flow cytometry, Panc-1. Type of series: cell-based, human. Conditions: Panc-1, 1 µM. On the procedure: (§4) The effects of FBA-TPQ on cell cycle distribution were analyzed using the previously reported methods; its effects appeared to be cell-line-dependent (Figure 2c). […] The differences in the responses of the different cell lines may be related to their expression of p53.
(§5) To determine the effect of FBA-TPQ on the cell cycle, cells (2–3 × 10^5) were exposed to the test compounds (0, 0.1, 0.5 or 1 µM) and incubated for 24 h prior to analysis. Cells were trypsinized, washed with PBS, and fixed in 1.5 mL of 95% ethanol and 0.5 mL of 0.9% saline solution at 4 °C overnight, followed by incubation with RNAse and staining with propidium iodide (Sigma). The DNA content was determined by flow cytometry. The cell cycle distribution was evaluated by comparing with that of the control cells.

Series [7] concerns Mia PaCa-2 cells. The series can be described thus: Cell cycle distribution by flow cytometry, Mia PaCa-2. It is filed as cell-based, human. The following applies: Mia PaCa-2, 1 µM. As for the experimental part:
as §4, §5

As for `O=C1C(NCc2ccc(F)cc2)=CC2=NCCc3c[nH]c1c32` [FBA-TPQ, 7-(4-fluorobenzylamino)-1,3,4,8-tetrahydropyrrolo[4,3,2-de]quinolin-8(1H)-one], the figures for the IC50 in series [1] and in series [2] were 540 ± 30 nM and 320 ± 10 nM, respectively. In addition, the IC50 at 72 h in series [3] stood at 5820 ± 460 nM. For the same molecule, the “differences in IC50, normal IMR90 fibroblasts vs pancreatic cancer cells” value in series [4] is reported as 10–50 fold. Moreover, the “increase in apoptosis vs control cells” value in series [5] is “four-fold”. Moreover, the cell cycle arrest entry in series [6] and in series [7] was “arrest in the S phase” in each case.
